Laboratory results published in patent US20050020565A1, “CCK-1 receptor modulators” (priority 2003, published 2005).

Molecular target: T1, CCK-1 receptor (Homo sapiens, UniProt P32238)
T1 construct: expressed in transfected cells; membranes
T1 sequence (P32238 1-428): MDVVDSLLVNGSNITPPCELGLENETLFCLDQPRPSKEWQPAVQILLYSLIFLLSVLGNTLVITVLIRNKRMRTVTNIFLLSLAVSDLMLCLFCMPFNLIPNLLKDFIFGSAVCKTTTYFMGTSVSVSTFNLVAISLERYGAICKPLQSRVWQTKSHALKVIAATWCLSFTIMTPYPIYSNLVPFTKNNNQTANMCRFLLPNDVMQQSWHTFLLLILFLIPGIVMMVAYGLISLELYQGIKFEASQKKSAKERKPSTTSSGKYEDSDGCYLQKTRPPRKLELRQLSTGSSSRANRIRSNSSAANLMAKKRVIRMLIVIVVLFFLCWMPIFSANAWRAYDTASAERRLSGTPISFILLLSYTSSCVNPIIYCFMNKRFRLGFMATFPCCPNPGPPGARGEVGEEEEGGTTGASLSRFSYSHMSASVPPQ
Test: CCK-1 receptor radioligand binding assay ([125I]-BH-CCK-8S displacement, membranes of stably transfected CHO-K1 cells)
Details: membranes of CHO-K1 cells stably transfected with CCK-1 receptor, 0.3 μM PD-134,308 present
Procedure: CHO-K1 cells that had undergone-stable transfection with the CCK-1 receptor were grown in DMEM supplemented with L-glutamine (2 mM), penicillin (50 units/mL) and streptomycin (50 μg/mL). Cells were cultured under continuous G418 selection (2 mM) and were harvested using a rubber cell scraper. CHO-K1 cells were sub-cultured a maximum of ten times before being reseeded from the original stocks.
Membranes were prepared from the stably transfected CHO-K1 cells. Frozen cell pellets (−40° C.) were thawed in 14 mL of buffer A (10 mM HEPES, 130 mM NaCl, 4.7 mM KCl, 5 mM MgCl, 1 mM EGTA and 15.4 mg/100 mL bacitracin at pH 7.2), adapted from Harper et al. (Br. J. Pharmacol. (1996) 118, pp 1717-1726). The thawed pellets were homogenized using a Polytron PT-10 (7×1 s). The homogenates were centrifuged for 5 min at 1500 rpm (600×g), and the resulting pellets were discarded. The supernatants were re-centrifuged in order to collect the receptor-membrane pellets (25 min 15,000 rpm; 39,800×g), which were re-suspended in buffer A.
All assays were conducted in 96-well plates (GF/B millipore filter plates) using buffer A, with 0.3 μM PD-134,308, for the dilutions. The CCK-2 receptor ligand was included to eliminate the contribution of this receptor subtype to the binding. For the optimal cell number determination experiments 20 pM [1251]-BH—CCK-8S (50 μL 60 pM solution) was incubated with a range of cell concentrations (2.5×105 to 12.5×10^5 cells/well) in a total volume of 150 μL. Total binding of [1251]-BH—CCK-8S was determined in the presence of 15 μL of buffer A. Non-specific binding of [1 251]-BH—CCK-8S was determined in the presence of 15 μL of 100 μM 2-naphthalenesulphonyl L-aspartyl-(2-phenethyl)amide (2-NAP: see R. A. Hull et al., Br. J. Pharmacol. (1993) 108, pp 734-740), a CCK-1 receptor selective antagonist that is structurally unrelated to the radioligand [1251]-BH—CCK-8S. The assay preparation was incubated for 1 h at 21±3° C., and then the assay was terminated upon rapid filtration of the preparation under reduced pressure. The loaded filters were washed three times using undiluted PBS (100 μL), and then the residues were transferred to 5 mL scintillation tubes. Bound radioactivity was determined using a gamma counter (count time=1 min). From these experiments a cell concentration of 1 pellet in 40 mL of buffer (2.5×10^6 cells/mL) was chosen for use in other assays (below). To validate the radioligand concentration and incubation time for the assay, saturation and kinetic binding studies were also conducted (see M. F. Morton, The Pharmacological Characterization of Cholecystokinin Receptors in the Human Gastrointestinal Tract. PhD Thesis, University of London, 2000). The affinity of novel compounds was estimated by incubating membrane preparations with 15 μL of competing ligand (0.1 pM-1 mM) for 60 min at 21±3° C. The assay was then terminated according to the procedure outlined above.
The pKi values were determined using the equation of Cheng and Prusoff (Biochem. Pharmacol. (1973) 22, pp 3099-3108): [formula]
To circumvent problems associated with computer-assisted data analysis of compounds with low affinity, the data obtained in the current study were weighted according to a method described by Morton (2000). In brief, 100% and 0% specific binding were defined independently using total binding and binding obtained in the presence of a high concentration of the reference antagonist, 2-NAP.

SMILES | Ki
Cc1cccc([C@H](Cc2cc(-c3ccc(Cl)c(Cl)c3)n(-c3ccc(O)cc3)n2)C(=O)O)c1 [Example 328] | 0.02 µM
Cc1ccc(-n2nc(CC(C(=O)O)c3cccc(C)c3)cc2-c2ccc3ccccc3c2)cc1 (centres unmarked) [Example 271] | 0.0158 µM
Cc1ccc(-c2cc(CC(C(=O)O)c3cccc(Cl)c3)nn2-c2ccc(C)cc2)cc1 (centres unmarked) [Example 168] | 0.00794 µM
Cc1ccc(-c2cc(CC(C(=O)O)c3ccc4c(c3)OCO4)nn2-c2ccc(Cl)c(Cl)c2)cc1 (centres unmarked) [Example 189] | 0.0398 µM
Cc1cccc(C(Cc2cc(-c3cccc(Cl)c3)n(C)n2)C(=O)O)c1 (centres unmarked) [Example 303] | 1.26 µM
Cc1ccc(-c2cc(CC(C(=O)O)c3ccccc3Cl)nn2Cc2ccccc2)cc1 (centres unmarked) [Example 43] | 0.1 µM
Cc1ccc(-n2nc(-c3cccc(N(C)C)c3)cc2CC(C(=O)O)c2cccc(C)c2)cc1 (centres unmarked) [Example 90] | 0.794 µM
COc1ccc(-n2nc(CC(C(=O)O)c3cccc(Cl)c3)cc2-c2ccc(C)cc2)cc1 (centres unmarked) [Example 7] | 0.00794 µM
COc1ccc(-n2nc(C[C@H](C(=O)O)c3cccc4ccccc34)cc2-c2ccc(C)cc2)cc1 [Example 152] | 0.0126 µM
COc1ccc(-n2nc(CC(C(=O)O)c3cccc4ccccc34)cc2-c2ccc(Cl)c(Cl)c2)cc1 (centres unmarked) [Example 210] | 0.0126 µM
Cc1ccc(-c2cc(CC(C(=O)O)c3cccc(C)c3)nn2-c2ccc(Cl)cc2)cc1 (centres unmarked) [Example 155] | 0.01 µM
Cc1cccc(C(Cc2cc(-c3ccc4c(c3)OCO4)n(Cc3ccccc3)n2)C(=O)O)c1 (centres unmarked) [Example 322] | 0.0398 µM
Cc1ccc(-n2nc(CC(C(=O)O)c3cccc(C)c3)cc2-c2cccc(N(C)C)c2)cc1 (centres unmarked) [Example 91] | 0.0126 µM
COc1cc(-c2cc(CC(C(=O)O)c3cccc(C)c3)nn2-c2ccc(C)cc2)ccc1C (centres unmarked) [Example 60] | 0.00501 µM
COc1ccc(-n2nc(CC(C(=O)O)c3cccc(Cl)c3)cc2-c2ccc(Oc3ccccc3)cc2)cc1 (centres unmarked) [Example 246] | 0.0398 µM
COc1ccc(-n2nc(CC(C(=O)O)c3cccc(C)c3)cc2-c2ccc(C)cc2)cc1 (centres unmarked) [Example 148] | 0.0158 µM
Cc1ccc(-n2nc(CC(C(=O)O)c3cccc(C)c3)cc2-c2ccc(N3CCCC3)cc2)cc1 (centres unmarked) [Example 352] | 0.0316 µM
COc1ccc(-n2nc(C[C@@H](C(=O)O)c3cccc(C)c3)cc2-c2ccc(Cl)c(Cl)c2)cc1 [Example 3] | 0.251 µM
Cc1cccc(C(Cc2cc(-c3ccc4ccccc4c3)nn2C2CCCCC2)C(=O)O)c1 (centres unmarked) [Example 50] | 0.1 µM
Cc1cccc(C(Cc2cc(-c3ccc4c(c3)OCO4)nn2CC2CCCCC2)C(=O)O)c1 (centres unmarked) [Example 82] | 1.26 µM
Cc1ccc(-c2cc(CC(C(=O)O)c3cccc4ccccc34)nn2Cc2ccccc2)cc1 (centres unmarked) [Example 195] | 0.01 µM
COc1ccc(-n2nc(C[C@H](C(=O)O)c3cccc4ccccc34)cc2-c2ccc3c(c2)OCO3)cc1 [Example 29] | 0.0398 µM
COc1ccc(-n2nc(C[C@@H](C(=O)O)c3cccc4ccccc34)cc2-c2ccc(C)cc2)cc1 [Example 151] | 0.2 µM
COc1ccc(-n2nc(CC(C(N)=O)c3cccc(C)c3)cc2-c2ccc(C)cc2)cc1 (centres unmarked) [Example 65] | 2 µM
Cc1cccc(C(Cc2cc(-c3ccc(Cl)c(Cl)c3)n(-c3ccc(S(C)(=O)=O)cc3)n2)C(=O)O)c1 (centres unmarked) [Example 54] | 0.0398 µM
Cc1cccc(C(Cc2cc(-c3cccnc3)n(-c3ccc(Cl)cc3Cl)n2)C(=O)O)c1 (centres unmarked) [Example 56] | 0.0501 µM
Cc1cccc(C(Cc2cc(-c3ccc4ccccc4c3)n(-c3ccccn3)n2)C(=O)O)c1 (centres unmarked) [Example 52] | 0.01 µM

SMILES | Ki
Cc1ccc(-n2nc(CC(C(=O)O)c3cccc(C)c3)cc2-c2ccc3c(c2)CCN3C)cc1 (centres unmarked) [Example 87] | 0.0251 µM
COc1ccc(-n2nc(CC(C(=O)O)c3cccc(OC)c3)cc2-c2ccc(Cl)c(Cl)c2)cc1 (centres unmarked) [Example 211] | 0.0126 µM
COc1ccc(-n2nc(/C=C(/C(=O)O)c3ccc(Cl)c(Cl)c3)cc2-c2ccc(Cl)c(Cl)c2)cc1 [Example 124] | 0.0398 µM
Cc1cccc(C(Cc2cc(-c3ccc(OCc4ccccc4)cc3)n(-c3ccc(OC(F)(F)F)cc3)n2)C(=O)O)c1 (centres unmarked) [Example 58] | 0.501 µM
COc1ccc(-n2nc(CC(C(=O)O)c3cccc4sccc34)cc2-c2ccc(C)cc2)cc1 (centres unmarked) [Example 153] | 0.0158 µM
COc1ccc(-n2nc(CC(C(=O)O)c3cccc(Cl)c3)cc2-c2ccc(Cl)cc2)cc1 (centres unmarked) [Example 37] | 0.02 µM
Cc1cccc(C(Cc2cc(-c3ccc4ccccc4c3)nn2Cc2ccccc2)C(=O)O)c1 (centres unmarked) [Example 83] | 0.0631 µM
Cc1cccc(C(Cc2cc(-c3ccc(Br)c(C)c3)n(C3CCCCC3)n2)C(=O)O)c1 (centres unmarked) [Example 308] | 0.0631 µM
O=C(O)/C(=C\c1cc(-c2ccc3ccccc3c2)n(-c2cc(Cl)ccc2Cl)n1)c1cccc(Cl)c1 [Example 112] | 0.00398 µM
Cc1ccc(-n2nc(CC(C(=O)O)c3cccc(C)c3)cc2-c2ccc(N3CCCC3=O)cc2)cc1 (centres unmarked) [Example 104] | 0.0398 µM
Cc1ccc(-n2nc(CC(C(=O)O)c3cccc(C)c3)cc2-c2ccc(N(C)C)cc2)cc1 (centres unmarked) [Example 59] | 0.00316 µM
CCOc1ccc(-n2nc(/C=C(\C(=O)O)c3cccc(Cl)c3)cc2-c2ccc3c(c2)OCO3)cc1 [Example 121] | 0.00794 µM
Cc1cccc(C(Cc2cc(-c3ccc(N(C)C)cc3)n(-c3ccc(OC(F)(F)F)cc3)n2)C(=O)O)c1 (centres unmarked) [Example 287] | 0.02 µM
COc1ccc(-n2nc(CC(C(=O)O)c3cccc(SC(F)(F)F)c3)cc2-c2ccc(Cl)c(Cl)c2)cc1 (centres unmarked) [Example 334] | 0.1 µM
Cc1ccc(-c2cc(CC(C(=O)O)c3cccc(SC(F)(F)F)c3)nn2-c2ccc(Cl)c(Cl)c2)cc1 (centres unmarked) [Example 26] | 0.0794 µM
COc1cccc2cc(-c3cc(CC(C(=O)O)c4cccc(C)c4)nn3-c3ccc(C)cc3)oc12 (centres unmarked) [Example 311] | 0.02 µM
COc1ccc(-n2nc(CC(C(=O)NC3CCCCC3O)c3cccc(C)c3)cc2-c2ccc(C)cc2)cc1 (centres unmarked) [Example 64] | 0.0501 µM
COc1ccc(-n2nc(/C=C(\C(=O)O)c3ccc(Cl)c(Cl)c3)cc2-c2ccc(Cl)c(Cl)c2)cc1 [Example 118] | 0.00501 µM
COc1ccc(-n2nc(C[C@H](C(=O)O)c3cccc(C)c3)cc2-c2ccc(Cl)c(Cl)c2)cc1 [Example 1] | 0.01 µM
COc1cccc(C(Cc2cc(-c3ccc(C)cc3)n(-c3ccc(C(F)(F)F)cc3)n2)C(=O)O)c1 (centres unmarked) [Example 177] | 0.0126 µM
Cc1cccc([C@H](Cc2cc(-c3ccc4ccccc4c3)n(-c3ccccn3)n2)C(=O)O)c1 [Example 92] | 0.00631 µM
Cc1ccc(-c2cc(CC(C(=O)O)c3cccc(Cl)c3Cl)nn2-c2ccc(Cl)c(Cl)c2)cc1 (centres unmarked) [Example 46] | 0.02 µM
COc1ccc(-n2nc(C[C@@H](c3cccc(C)c3)c3nnn[nH]3)cc2-c2ccc(Cl)c(Cl)c2)cc1 [Example 129] | 0.0158 µM
COc1ccc(-n2nc(CC(C(=O)O)c3coc4ccccc34)cc2-c2ccc3c(c2)OCO3)cc1 (centres unmarked) [Example 262] | 0.0126 µM
Cc1cccc(C(Cc2cc(-c3ccc(Oc4ccccc4)cc3)[nH]n2)C(=O)O)c1 (centres unmarked) [Example 305] | 2 µM
Cc1ccc(-c2cc(CC(C(=O)O)c3cccc4ccccc34)nn2-c2ccc(C)cc2)cc1 (centres unmarked) [Example 167] | 0.0126 µM
